Assay results published in patent US8435769B2, “Use of glyphosate to produce shikimic acid in microorganisms” (Monsanto Technology LLC, priority 2007, dated 2013).

Legend:
Format in all cases: cell-based, Escherichia coli
[1] = system: E. coli K-12 host strain LBB427 (untransformed and transformed with plasmid pXT1457); test: Growth of shake-flask cultures after glyphosate addition; conditions: glyphosate 3.38 grams per liter (20 millimolar) added 2.5 hours after inoculation; Vogel-Bonner minimal culture medium; 37 degrees Celsius
Description: (§1) To confirm that the new plasmid was functioning as expected, the wild-type E. coli K-12 host strain LBB427 was transformed with the plasmid pXT1457. Techniques for transforming bacteria, including strains of E. coli, are known in the art (Sambrook and Russell, 2001; Ausubel et al., 2005). The shikimic acid and phenylalanine production levels of this strain were compared to that of the untransformed host strain LBB427. […] At 24 hours after inoculation, the cells were pelleted by centrifugation, and the culture supernatants were analyzed by a high-pressure liquid chromatography (HPLC) assay for shikimic acid and phenylalanine content. […]
(§2) The untransformed host strain LBB427 and the host strain LBB427 transformed with the plasmid pXT1457 were grown in 50 milliliters of the Vogel-Bonner minimal culture medium described in Example 1. […] At 24 hours after inoculation (i.e., 21.5 hours after N-(phosphonomethyl)glycine addition), the cells were pelleted by centrifugation, and the culture supernatants were analyzed for shikimic acid content using the HPLC assay described in Example 1. The culture supernatants of the host strain LBB427 transformed with the plasmid pXT1457 were also analyzed for phenylalanine content.

[2] = system: untransformed host strain LBB427; test: HPLC assay of culture supernatant after glyphosate treatment, untransformed strain
Description: as §1
[…] At 24 hours after inoculation (i.e., 21.5 hours after N-(phosphonomethyl)glycine addition), the cells were pelleted by centrifugation, and the culture supernatants were analyzed for shikimic acid content using the HPLC assay described in Example 1. The culture supernatants of the host strain LBB427 transformed with the plasmid pXT1457 were also analyzed for phenylalanine content. […]

[3] = system: host strain LBB427 transformed with the plasmid pXT1457; test: HPLC assay of culture supernatant after glyphosate treatment, pXT1457 strain
Description: To confirm that the new plasmid was functioning as expected, the wild-type E. coli K-12 host strain LBB427 was transformed with the plasmid pXT1457. Techniques for transforming bacteria, including strains of E. coli, are known in the art (Sambrook and Russell, 2001; Ausubel et al., 2005). The shikimic acid and phenylalanine production levels of this strain were compared to that of the untransformed host strain LBB427. The strains were cultured in 50 milliliters of Vogel-Bonner minimal culture medium (Vogel and Bonner, 1956), consisting of magnesium sulfate heptahydrate (MgSO4-7H2O) at 298 milligrams per liter, anhydrous dibasic potassium phosphate (K2HPO4) at 14.93 grams per liter, sodium ammonium phosphate tetrahydrate (NaNH4HPO4-4H2O) at 5.22 grams per liter, anhydrous citric acid (the free acid form) at 2.73 grams per liter, and glucose at 2.00 grams per liter. The pH of the culture medium was 7.0. For the strain LBB427 transformed with the plasmid pXT1457, ampicillin was included in the culture medium at 100 milligrams per liter. The cultures were grown in flasks, on an incubator shaker operating at 300 rpm and 37 degrees Celsius. At 24 hours after inoculation, the cells were pelleted by centrifugation, and the culture supernatants were analyzed by a high-pressure liquid chromatography (HPLC) assay for shikimic acid and phenylalanine content. To the samples to be assayed, phosphoric acid was added to a final concentration of 6 millimolar. […]
as §2, with “content. […]” for “content.”

[4] = system: host strain LBB427 transformed with the plasmid pXT1483; test: HPLC assay of culture supernatant after glyphosate treatment, pXT1483 strain
[5] = system: host strain LBB427 transformed with the plasmid pXT1483; test: High-density phosphate-limited fermentation culture with glyphosate addition; conditions: optical density of 40; glyphosate 20 millimolar; twelve hours after addition; sample at pH 1.0, 60 degrees Celsius, 15 minutes
Description: The host strain LBB427 transformed with the plasmid pXT1483 can be grown to high optical densities in a phosphate-limited fermentation culture. Fermentations are conducted in a chemically-defined minimal medium containing 5.9 grams of anhydrous ammonium sulfate ((NH4)2SO4), 1.8 grams of anhydrous dibasic potassium phosphate (K2HPO4), 1.0 grams of monobasic sodium phosphate monohydrate (NaH2PO4—H2O), 550 milligrams of magnesium sulfate heptahydrate (MgSO4-7H2O), 27 milligrams of ferric chloride hexahydrate (FeCl3-6H2O), 0.5 milligrams of zinc sulfate heptahydrate (ZnSO4-7H2O), 0.9 milligrams of cobalt chloride hexahydrate (CoCl2-6H2O), 0.9 milligrams of sodium molybdate dihydrate (Na2MoO4-2H2O), 1.1 milligrams of cupric sulfate pentahydrate (CuSO4-5H2O), 0.3 milligrams of boric acid (H3BO3), and 0.7 milligrams of manganese sulfate monohydrate (MnSO4—H2O) per liter of water. The fermenter is maintained at 37 degrees Celsius. The pH is maintained at 7.0 by the controlled addition of concentrated (about 29%) ammonium hydroxide (NH4OH). […]
Twelve hours after N-(phosphonomethyl)glycine addition, samples of the fermentation cultures are taken for analysis of shikimic acid levels. […] The cells are pelleted by centrifugation, and the culture supernatants are analyzed for shikimic acid content using the HPLC assay described in Example 1.

[6] = glyphosate 20 millimolar and phosphate-limitation (PF culture medium), 24 hours after inoculation
[7] = glyphosate 20 millimolar, Vogel-Bonner minimal culture medium, 24 hours after inoculation (21.5 hours after addition)

O=C(O)CNCP(=O)(O)O [glyphosate, N-(phosphonomethyl)-glycine]
Growth of the cultures [1]: almost completely inhibited | shikimic acid in the culture supernatant [2, 6]: about 200 milligrams of shikimic acid per OD unit per liter | shikimic acid in the culture supernatant [2, 7]: did not produce detectable levels of shikimic acid | shikimic acid in the culture supernatant [3, 6]: about 250 milligrams of shikimic acid per OD unit per liter | shikimic acid in the culture supernatant [3, 7]: did not produce detectable levels of shikimic acid | phenylalanine in the culture supernatant ([3]; glyphosate 20 millimolar, Vogel-Bonner minimal culture medium, 24 hours after inoculation, about 400 without glyphosate): about 50 milligrams of phenylalanine per OD unit per liter | shikimic acid in the culture supernatant [4, 6]: about 400 milligrams of shikimic acid per OD unit per liter | level of shikimic acid in the culture supernatant ([4]; glyphosate 20 millimolar and phosphate-limitation, culture sample with cells adjusted to pH 1.0, heated to 60 degrees Celsius for 15 minutes): about 600 milligrams per OD unit per liter | shikimic acid in the culture supernatant [5]: about 24 grams of shikimic acid per liter
